Measured values taken from the supplement of paper PMC10307832.

Key:
Assay in all cases: relative viability (nuclei count vs DMSO), 5 days (fraction); higher = more cells survive
[1] = compound: C/C(=N\NC(=S)N1CCC1)/C2=CC=CC=N2 + COc1cc2c(Oc3ccc(NC(=O)C4(C(=O)Nc5ccc(F)cc5)CC4)cc3F)ccnc2cc1OCCCN1CCOCC1 [Foretinib] (partner 0.25 µM)
Outline: (§1)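 Values are medians from duplicate plates. Each reflects relative viability, defined as the nuclei count of treated wells over that of vehicle wells. Lung cancer cell lines in 1536-well plates were pin-tool dosed one day after seeding with one drug alone or with a fixed anchor-drug dose plus five library-drug doses (not always all listed) in √10 steps, then fixed, stained and imaged at 4× after 5 days.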

[2] = compound: C/C(=N\NC(=S)N1CCC1)/C2=CC=CC=N2 + Cc1nc(NC(=O)N2CCC[C@H]2C(N)=O)sc1-c1ccnc(C(C)(C)C(F)(F)F)c1 [Alpelisib] (partner 2 µM)
Outline: as §1

[3] = compound: C/C(=N\NC(=S)N1CCC1)/C2=CC=CC=N2 + Nc1nc2[nH]cc(CCc3ccc(C(=O)N[C@@H](CCC(=O)O)C(=O)O)cc3)c2c(=O)[nH]1 [Pemetrexed] (partner 0.2 µM)
Outline: as §1

[4] = compound: C/C(=N\NC(=S)N1CCC1)/C2=CC=CC=N2 + O=C(c1cc(Cc2n[nH]c(=O)c3ccccc23)ccc1F)N1CCN(C(=O)C2CC2)CC1 [Olaparib] (partner 8 µM)
Outline: as §1

| Cell Line | relative viability ([1]; first compound 0.05 µM) | relative viability ([1]; first compound 0.1581 µM) | relative viability ([1]; first compound 0.5 µM) | relative viability ([1]; first compound 1.581 µM) | relative viability ([1]; first compound 5 µM) | relative viability ([2]; first compound 0.05 µM) | relative viability ([2]; first compound 0.1581 µM) | relative viability ([2]; first compound 0.5 µM) | relative viability ([2]; first compound 1.581 µM) | relative viability ([2]; first compound 5 µM) | relative viability ([3]; first compound 0.05 µM) | relative viability ([3]; first compound 0.1581 µM) | relative viability ([3]; first compound 0.5 µM) | relative viability ([3]; first compound 1.581 µM) | relative viability ([3]; first compound 5 µM) | relative viability ([4]; first compound 0.05 µM) | relative viability ([4]; first compound 0.1581 µM) | relative viability ([4]; first compound 0.5 µM) | relative viability ([4]; first compound 1.581 µM) | relative viability ([4]; first compound 5 µM) |
| --- | --- | --- | --- | --- | --- | --- | --- | --- | --- | --- | --- | --- | --- | --- | --- | --- | --- | --- | --- | --- |
| NCI-H1755 | 0.518 | 0.35 | 0.283 | 0.268 | 0.258 | 0.471 | 0.834 | 0.172 | 0.201 | 0.187 | 0.394 | 0.302 | 0.273 | 0.31 | 0.292 | 0.632 | 0.858 | 0.288 | 0.29 | 0.224 |
| NCI-H2087 | 0.185 | 0.178 | 0.193 | 0.15 | 0.121 | 0.24 | 0.196 | 0.246 | 0.141 | 0.151 | 0.16 | 0.181 | 0.214 | 0.163 | 0.119 | 0.123 | 0.113 | 0.138 | 0.144 | 0.0767 |
| NCI-H2228 | 0.227 | 0.129 | 0.145 |  | 0.113 | 0.154 | 0.18 | 0.227 | 0.124 | 0.147 | 0.107 | 0.147 | 0.116 | 0.0863 | 0.121 | 0.125 | 0.142 | 0.138 | 0.115 | 0.107 |
| NCI-H727 | 0.225 | 0.231 | 0.227 | 0.227 | 0.22 | 0.191 | 0.152 | 0.19 | 0.175 | 0.147 |  |  |  |  |  | 0.437 | 0.273 | 0.295 | 0.347 | 0.4 |
| NCI-H650 | 0.222 | 0.238 | 0.234 | 0.242 | 0.194 | 0.187 | 0.252 | 0.271 | 0.225 | 0.169 | 0.179 | 0.245 | 0.201 | 0.166 | 0.131 | 0.135 | 0.151 | 0.147 | 0.114 | 0.138 |
| NCI-H520 | 0.153 | 0.162 | 0.159 | 0.17 | 0.184 | 0.159 | 0.144 | 0.124 | 0.138 | 0.154 | 0.128 | 0.16 | 0.145 | 0.122 | 0.146 | 0.122 | 0.131 | 0.125 | 0.106 | 0.143 |
| EBC-1 | 0.0973 | 0.107 | 0.131 | 0.0785 | 0.0979 | 0.191 | 0.192 | 0.166 | 0.152 | 0.147 |  |  |  |  |  | 0.163 | 0.164 | 0.152 | 0.131 | 0.13 |
| NCI-H661 | 0.294 | 0.307 | 0.244 | 0.264 | 0.24 | 0.153 | 0.268 | 0.145 | 0.172 | 0.202 | 0.286 | 0.278 | 0.244 | 0.229 | 0.223 | 0.244 | 0.239 | 0.202 | 0.243 | 0.219 |
| NCI-H1299 | 0.107 | 0.133 | 0.191 | 0.187 | 0.117 | 0.094 | 0.195 | 0.213 | 0.213 | 0.15 |  |  |  |  |  | 0.111 | 0.144 | 0.183 | 0.167 | 0.15 |
| LK-2 | 0.134 | 0.183 | 0.202 | 0.133 | 0.146 | 0.182 | 0.28 | 0.283 | 0.176 | 0.243 | 0.0705 | 0.123 | 0.0631 | 0.1 | 0.0756 | 0.076 | 0.14 | 0.104 | 0.0854 | 0.0916 |
| NCI-H1993 | 0.542 | 0.516 | 0.567 | 0.631 | 0.526 | 0.67 | 0.57 | 0.555 | 0.505 | 0.489 | 0.382 | 0.487 | 0.436 | 0.405 | 0.375 | 0.418 | 0.426 | 0.355 | 0.334 | 0.431 |
| NCI-H1648 |  |  |  |  |  |  |  |  |  |  | 0.258 | 0.323 | 0.329 | 0.274 | 0.311 | 0.624 | 0.794 | 0.294 | 0.278 | 0.226 |
| NCI-H1650 | 0.185 | 0.225 | 0.175 | 0.205 | 0.215 |  |  |  |  |  | 0.308 | 0.186 | 0.202 | 0.221 | 0.203 | 0.13 | 0.158 | 0.125 | 0.166 | 0.152 |
| SW 900 | 0.117 | 0.114 | 0.0636 | 0.068 | 0.15 |  |  |  |  |  | 0.127 | 0.081 | 0.0901 | 0.122 | 0.196 | 0.233 | 0.116 | 0.135 | 0.164 | 0.16 |
| IA-LM | 0.0694 | 0.0465 | 0.0654 | 0.0441 | 0.0339 | 0.0645 | 0.0816 | 0.0594 | 0.0596 | 0.0781 |  |  |  |  |  | 0.115 | 0.107 | 0.101 | 0.0716 | 0.0719 |
| NCI-H1563 | 0.543 | 0.63 | 0.576 | 0.529 | 0.581 | 0.528 | 0.493 | 0.492 | 0.573 | 0.596 | 0.525 | 0.571 | 0.505 | 0.41 | 0.47 |  |  |  |  |  |
| HCC-44 |  |  |  |  |  | 0.473 | 0.143 | 0.178 | 0.162 | 0.218 | 0.599 | 0.52 | 0.549 | 0.547 | 0.424 | 0.863 | 0.918 | 0.541 | 0.517 | 0.446 |
| ABC-1 | 0.13 | 0.243 | 0.197 | 0.207 | 0.208 | 0.371 | 0.226 | 0.234 | 0.27 | 0.281 |  |  |  |  |  | 0.349 | 0.338 | 0.301 | 0.345 | 0.438 |
| NCI-H522 |  |  |  |  |  |  |  |  |  |  | 0.243 | 0.299 | 0.284 | 0.352 | 0.364 | 0.291 | 0.335 | 0.303 | 0.311 | 0.329 |
| NCI-H1792 |  |  |  |  |  | 0.457 | 0.373 | 0.153 | 0.114 | 0.085 | 0.126 | 0.0786 | 0.0748 | 0.0765 | 0.0786 | 0.228 | 0.107 | 0.0578 | 0.134 | 0.101 |
